Experimental data: patent US20100160454A1, “ANTIMICROBIAL AGENTS, COMPOSITIONS AND PRODUCTS CONTAINING THE SAME, AND METHODS OF USING THE COMPOSITIONS AND PRODUCTS” (Eastman Chemical Company, priority 2008, published 2010)

Columns and labels:
Assay in all cases: Microbiological challenge testing in BPW broth, graded subculture counts
Format in all cases: cell-based
[1] = system: Pseudomonas aeruginosa Wild type; conditions: P. aeruginosa
Procedure: (§1) The microorganisms in the table below were used in challenge tests. They were either ATCC (American Type Culture Collection) or “wild type” as indicated. Wild type organisms were problematic organisms previously isolated from chemical products.
(§2) All of the microorganisms were grown in Tryptose Soy Broth (TSB), DIFCO™ available from Becton, Dickinson and Company, containing 1% dextrose. Candida albicans and Aspergillus niger, were incubated at 22° C.+/−2° C. for at least 96 hours. All bacteria were incubated at 35° C.+/−2° C. in a humidified incubator for at least 96 hours.
(§3) The following procedure was followed to determine the amount of each challenge material (inoculum broth) needed to produce a 10^8 CFU/mL challenge, which is equivalent to a final test-sample microbial concentration of 10^5 to 10^6 CFU/mL (CFU=colony forming units).
(§4) Using a sterile pipette, 1 mL of the growth from each TSB culture was transferred into tubes of 9 mL buffered water (pH 7.2 phosphate buffer) and mixed thoroughly. This was repeated to make serial 1:10 dilutions. Then, 0.1 mL of each sample and dilution was inoculated onto agar plates to produce the equivalent of a further 1:10 dilution. (C. albicans and A. niger were inoculated onto SABD and bacteria were inoculated onto Plate Count Agar (PCA), DIFCO™ available from Becton, Dickinson and Company.) (The normal volume plated for most samples was 0.1 mL. Some samples that could be very low in micro-organisms (high dilutions) were plated using 0.5 mL of inoculum, in order to produce reproducible counts.) The samples were distributed on the plates using the spread-plate technique. The spread-plate technique is carried out by spreading the sample over the entire plate surface using a sterile spreading rod while rotating the plate with a rotary auto-plater. After the inoculum was absorbed completely by the agar, each plate was inverted and incubated (fungi at 22° C.+/−2° C. and bacteria at 35° C.+/−2° C.).
(§5) After incubation for at least 48 hours, colonies that had developed on the agar plates were counted (CFU) and recorded with the corresponding dilution. If counting had to be delayed temporarily, plates were refrigerated, preferably no more than 24 hours, until they could be counted. The number of CFU/mL was determined by multiplying the plate count by the dilution factor of the plate counted.
(§6) Turbidity in Nepholemetric Turbidity Units (NTU) was measured for each serial dilution using the HF-Micro 100 Model Turbidimeter. For each microorganism, the plate counts were compared to the turbidity readings.
(§7) Control substrates (“broth alone”) were prepared for each microorganism separately in triplicate by adding 13.5 mL of Buffered Peptone Water broth (BPW) containing 1% dextrose to each 20-mL glass tube, then adding 1.5 mL challenge material to produce a final concentration at time zero of 10^5 to 10^6 CFU/mL and a total volume of 15 mL.
(§8) Test sample substrates were prepared containing each test material listed below at the concentrations shown for challenge testing with each microorganism separately. Sample substrates were prepared in triplicate, except the substrates containing butoxyethanol which were prepared in duplicate. Substrates were prepared by adding BPW containing 1% dextrose to each 20-mL glass tube, then adding the test material in the amount appropriate to achieve the desired weight/volume percent and to achieve a total volume of BPW plus dextrose plus test material of 13.5 mL. Then 1.5 mL challenge material was added to produce a final concentration at time zero of 10^5 to 10^6 CFU/mL and a total test sample substrate volume of 15 mL.

[2] = system: Burkholderia cepacia Wild type; conditions: B. cepacia
Procedure: as §1, §2, §3, §4, §5, §6, §7, §8

Aeromonas sp. Wild type = system: Aeromonas sp. Wild type
Procedure: as §1, §2, §3, §4, §5, §6, §7, §8

[3] = system: Staphylococcus epidermidis ATCC 12228
Procedure: as §1, §2, §3, §4, §5, §6, §7, §8

CC1(C)C(O)C(C)(C)C1O (stereo not drawn) [TMCBD, 2,2,4,4-tetramethyl-1,3-cyclobutanediol]
Grade ([1]; 0.5% (wt/vol), 3 day): 5 (More than 10,000 colonies estimated (thus more than 100,000 CFU/mL)) | Grade ([1]; 0.5% (wt/vol), 13 day): 5 (More than 10,000 colonies estimated (thus more than 100,000 CFU/mL)) | Grade ([1]; 0.5% (wt/vol), 30 day): 5 (More than 10,000 colonies estimated (thus more than 100,000 CFU/mL)) | Grade ([1]; 1.25% (wt/vol), 3 day): 4 (1000 to 10,000 colonies countable (thus 10,000 CFU/mL to 100,000 CFU/mL)) | Grade ([1]; 1.25% (wt/vol), 13 day): 4 (1000 to 10,000 colonies countable (thus 10,000 CFU/mL to 100,000 CFU/mL)) | Grade ([1]; 1.25% (wt/vol), 30 day): 4 (1000 to 10,000 colonies countable (thus 10,000 CFU/mL to 100,000 CFU/mL)) | Grade ([1]; 2.5% (wt/vol), 3 day): 4 (1000 to 10,000 colonies countable (thus 10,000 CFU/mL to 100,000 CFU/mL)) | Grade ([1]; 2.5% (wt/vol), 13 day): 3 (100 to 1000 colonies (thus 1000 to 10,000 CFU/mL)) | Grade ([1]; 2.5% (wt/vol), 30 day): 4 (1000 to 10,000 colonies countable (thus 10,000 CFU/mL to 100,000 CFU/mL)) | Grade ([1]; 5.0% (wt/vol), 3 day): 3 (100 to 1000 colonies (thus 1000 to 10,000 CFU/mL)) | Grade ([1]; 5.0% (wt/vol), 13 day): 1 (0 to 51 colonies counted (thus 10 to 510 CFU/mL based on 0.1-mL sample)) | Grade ([1]; 5.0% (wt/vol), 30 day): 0 | Grade ([2]; 0.5% (wt/vol), 3 day): 4 (1000 to 10,000 colonies countable (thus 10,000 CFU/mL to 100,000 CFU/mL)) | Grade ([2]; 0.5% (wt/vol), 14 day): 4 (1000 to 10,000 colonies countable (thus 10,000 CFU/mL to 100,000 CFU/mL)) | Grade ([2]; 0.5% (wt/vol), 30 day): 4 (1000 to 10,000 colonies countable (thus 10,000 CFU/mL to 100,000 CFU/mL)) | Grade ([2]; 1.25% (wt/vol), 3 day): 3 (100 to 1000 colonies (thus 1000 to 10,000 CFU/mL)) | Grade ([2]; 1.25% (wt/vol), 14 day): 2 (52 to 100 colonies counted (thus 520 to 1000 CFU/mL)) | Grade ([2]; 1.25% (wt/vol), 30 day): 4 (1000 to 10,000 colonies countable (thus 10,000 CFU/mL to 100,000 CFU/mL)) | Grade ([2]; 2.5% (wt/vol), 3 day): 1 (0 to 51 colonies counted (thus 10 to 510 CFU/mL based on 0.1-mL sample)) | Grade ([2]; 2.5% (wt/vol), 14 day): 0 | Grade ([2]; 2.5% (wt/vol), 30 day): 0 | Grade ([2]; 5.0% (wt/vol), 3 day): 1 (0 to 51 colonies counted (thus 10 to 510 CFU/mL based on 0.1-mL sample)) | Grade ([2]; 5.0% (wt/vol), 14 day): 0 | Grade ([2]; 5.0% (wt/vol), 30 day): 0 | Aeromonas sp growth grade, 3 day (Aeromonas sp. Wild type; 0.5% weight/volume): 5 (More than 10,000 colonies estimated (thus more than 100,000 CFU/mL)) | Aeromonas sp growth grade, 14 day (Aeromonas sp. Wild type; 0.5% weight/volume): 4 (1000 to 10,000 colonies countable (thus 10,000 CFU/mL to 100,000 CFU/mL)) | Aeromonas sp growth grade, 30 day (Aeromonas sp. Wild type; 0.5% weight/volume): 4 (1000 to 10,000 colonies countable (thus 10,000 CFU/mL to 100,000 CFU/mL)) | Aeromonas sp growth grade, 3 day (Aeromonas sp. Wild type; 1.25% weight/volume): 4 (1000 to 10,000 colonies countable (thus 10,000 CFU/mL to 100,000 CFU/mL)) | Aeromonas sp growth grade, 14 day (Aeromonas sp. Wild type; 1.25% weight/volume): 4 (1000 to 10,000 colonies countable (thus 10,000 CFU/mL to 100,000 CFU/mL)) | Aeromonas sp growth grade, 30 day (Aeromonas sp. Wild type; 1.25% weight/volume): 4 (1000 to 10,000 colonies countable (thus 10,000 CFU/mL to 100,000 CFU/mL)) | Aeromonas sp growth grade, 3 day (Aeromonas sp. Wild type; 2.5% weight/volume): 4 (1000 to 10,000 colonies countable (thus 10,000 CFU/mL to 100,000 CFU/mL)) | Aeromonas sp growth grade, 14 day (Aeromonas sp. Wild type; 2.5% weight/volume): 2 (52 to 100 colonies counted (thus 520 to 1000 CFU/mL)) | Aeromonas sp growth grade, 30 day (Aeromonas sp. Wild type; 2.5% weight/volume): 3 (100 to 1000 colonies (thus 1000 to 10,000 CFU/mL)) | Aeromonas sp growth grade, 3 day (Aeromonas sp. Wild type; 5.0% weight/volume): 2 (52 to 100 colonies counted (thus 520 to 1000 CFU/mL)) | Aeromonas sp growth grade, 14 day (Aeromonas sp. Wild type; 5.0% weight/volume): 0 | Aeromonas sp growth grade, 30 day (Aeromonas sp. Wild type; 5.0% weight/volume): 0 | S. epidermidis growth grade, 3 day ([3]; 0.5% weight/volume): 4 (1000 to 10,000 colonies countable (thus 10,000 CFU/mL to 100,000 CFU/mL)) | S. epidermidis growth grade, 13 day ([3]; 0.5% weight/volume): 4 (1000 to 10,000 colonies countable (thus 10,000 CFU/mL to 100,000 CFU/mL)) | S. epidermidis growth grade, 30 day ([3]; 0.5% weight/volume): 4 (1000 to 10,000 colonies countable (thus 10,000 CFU/mL to 100,000 CFU/mL)) | S. epidermidis growth grade, 3 day ([3]; 1.25% weight/volume): 2 (52 to 100 colonies counted (thus 520 to 1000 CFU/mL)) | S. epidermidis growth grade, 13 day ([3]; 1.25% weight/volume): 3 (100 to 1000 colonies (thus 1000 to 10,000 CFU/mL)) | S. epidermidis growth grade, 30 day ([3]; 1.25% weight/volume): 4 (1000 to 10,000 colonies countable (thus 10,000 CFU/mL to 100,000 CFU/mL))
